Values belong to the molecule of their own block, whether it stands above or below them.
Tests used:
Test in all cases: radiometric filter-binding kinase assay, Kinase HotSpot
Conditions in all cases: compound 0.5 µM; ATP 10 µM
MELK (human) = MELK (human) (UniProt Q14680)
PRKCZ (human) = PRKCZ (human) (UniProt Q05513)
[1] = target: TYK2 JH1 catalytic (human) (UniProt P29597)
STK24 (human) = STK24 (human) (UniProt Q9Y6E0)
STK3 (human) = STK3 (human) (UniProt Q13188)
CAMKK1 (human) = CAMKK1 (human) (UniProt Q8N5S9)
CAMK2B (human) = CAMK2B (human) (UniProt Q13554)
EPHA2 (human) = EPHA2 (human) (UniProt P29317)
CAMKK2 (human) = CAMKK2 (human) (UniProt Q96RR4)
PRKCD (human) = PRKCD (human) (UniProt Q05655)
SGK2 (human) = SGK2 (human) (UniProt Q9HBY8)
CDK5 CDK5R1 p35 (human) = CDK5 CDK5R1 p35 (human) (UniProt Q00535+Q15078)
HIPK4 (human) = HIPK4 (human) (UniProt Q8NE63)
MET (human) = MET (human) (UniProt P08581)
DYRK3 (human) = DYRK3 (human) (UniProt O43781)
[2] = system: FLT4 (human), P35916 [Q890H]
Sequence of FLT4 (human), P35916 [Q890H] (P35916 whole entry, looked up, stated change not applied): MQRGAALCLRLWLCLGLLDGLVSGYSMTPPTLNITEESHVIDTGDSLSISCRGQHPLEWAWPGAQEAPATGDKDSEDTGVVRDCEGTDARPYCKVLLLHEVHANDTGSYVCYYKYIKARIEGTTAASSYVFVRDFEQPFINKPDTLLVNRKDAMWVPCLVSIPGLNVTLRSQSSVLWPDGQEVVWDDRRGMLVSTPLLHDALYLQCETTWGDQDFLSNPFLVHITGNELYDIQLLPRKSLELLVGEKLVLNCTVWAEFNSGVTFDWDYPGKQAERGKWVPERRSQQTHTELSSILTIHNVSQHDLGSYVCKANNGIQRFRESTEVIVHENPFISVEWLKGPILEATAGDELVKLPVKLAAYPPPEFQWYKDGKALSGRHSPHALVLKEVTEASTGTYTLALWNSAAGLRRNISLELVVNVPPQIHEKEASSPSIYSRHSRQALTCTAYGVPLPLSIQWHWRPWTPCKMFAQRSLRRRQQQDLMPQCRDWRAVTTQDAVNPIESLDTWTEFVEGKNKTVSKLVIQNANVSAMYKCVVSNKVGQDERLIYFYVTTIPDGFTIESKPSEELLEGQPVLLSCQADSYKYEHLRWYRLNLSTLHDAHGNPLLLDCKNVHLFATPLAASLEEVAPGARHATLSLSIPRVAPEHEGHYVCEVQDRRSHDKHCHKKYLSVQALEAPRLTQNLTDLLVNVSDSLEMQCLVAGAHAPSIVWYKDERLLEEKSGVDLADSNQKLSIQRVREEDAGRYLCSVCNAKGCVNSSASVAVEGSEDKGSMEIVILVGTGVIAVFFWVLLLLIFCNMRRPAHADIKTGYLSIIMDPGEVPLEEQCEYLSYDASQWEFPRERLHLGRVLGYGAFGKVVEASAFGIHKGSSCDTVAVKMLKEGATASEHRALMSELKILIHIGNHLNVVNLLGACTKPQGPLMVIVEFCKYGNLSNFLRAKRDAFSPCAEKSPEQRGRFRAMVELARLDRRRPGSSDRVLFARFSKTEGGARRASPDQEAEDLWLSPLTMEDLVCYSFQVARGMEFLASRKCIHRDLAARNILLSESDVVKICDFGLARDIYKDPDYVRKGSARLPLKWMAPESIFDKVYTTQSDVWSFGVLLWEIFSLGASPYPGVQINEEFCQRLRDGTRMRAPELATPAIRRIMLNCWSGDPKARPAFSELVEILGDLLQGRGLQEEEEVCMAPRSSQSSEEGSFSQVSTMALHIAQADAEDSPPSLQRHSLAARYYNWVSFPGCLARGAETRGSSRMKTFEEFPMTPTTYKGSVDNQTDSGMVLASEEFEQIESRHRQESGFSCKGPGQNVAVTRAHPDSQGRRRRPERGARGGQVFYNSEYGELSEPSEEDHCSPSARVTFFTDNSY

MAP4K5 (human) = MAP4K5 (human) (UniProt Q9Y4K4)
GRK4 (human) = GRK4 (human) (UniProt P32298)
PDGFRA (human) = PDGFRA (human) (UniProt P16234)
ACVR1B (human) = ACVR1B (human) (UniProt P36896)
CSF1R (human) = CSF1R (human) (UniProt P07333)
MAP3K14 (human) = MAP3K14 (human) (UniProt Q99558)
SRMS (human) = SRMS (human) (UniProt Q9H3Y6)
SLK (human) = SLK (human) (UniProt Q9H2G2)
Sequence of SLK (human) (Q9H2G2 whole entry, looked up): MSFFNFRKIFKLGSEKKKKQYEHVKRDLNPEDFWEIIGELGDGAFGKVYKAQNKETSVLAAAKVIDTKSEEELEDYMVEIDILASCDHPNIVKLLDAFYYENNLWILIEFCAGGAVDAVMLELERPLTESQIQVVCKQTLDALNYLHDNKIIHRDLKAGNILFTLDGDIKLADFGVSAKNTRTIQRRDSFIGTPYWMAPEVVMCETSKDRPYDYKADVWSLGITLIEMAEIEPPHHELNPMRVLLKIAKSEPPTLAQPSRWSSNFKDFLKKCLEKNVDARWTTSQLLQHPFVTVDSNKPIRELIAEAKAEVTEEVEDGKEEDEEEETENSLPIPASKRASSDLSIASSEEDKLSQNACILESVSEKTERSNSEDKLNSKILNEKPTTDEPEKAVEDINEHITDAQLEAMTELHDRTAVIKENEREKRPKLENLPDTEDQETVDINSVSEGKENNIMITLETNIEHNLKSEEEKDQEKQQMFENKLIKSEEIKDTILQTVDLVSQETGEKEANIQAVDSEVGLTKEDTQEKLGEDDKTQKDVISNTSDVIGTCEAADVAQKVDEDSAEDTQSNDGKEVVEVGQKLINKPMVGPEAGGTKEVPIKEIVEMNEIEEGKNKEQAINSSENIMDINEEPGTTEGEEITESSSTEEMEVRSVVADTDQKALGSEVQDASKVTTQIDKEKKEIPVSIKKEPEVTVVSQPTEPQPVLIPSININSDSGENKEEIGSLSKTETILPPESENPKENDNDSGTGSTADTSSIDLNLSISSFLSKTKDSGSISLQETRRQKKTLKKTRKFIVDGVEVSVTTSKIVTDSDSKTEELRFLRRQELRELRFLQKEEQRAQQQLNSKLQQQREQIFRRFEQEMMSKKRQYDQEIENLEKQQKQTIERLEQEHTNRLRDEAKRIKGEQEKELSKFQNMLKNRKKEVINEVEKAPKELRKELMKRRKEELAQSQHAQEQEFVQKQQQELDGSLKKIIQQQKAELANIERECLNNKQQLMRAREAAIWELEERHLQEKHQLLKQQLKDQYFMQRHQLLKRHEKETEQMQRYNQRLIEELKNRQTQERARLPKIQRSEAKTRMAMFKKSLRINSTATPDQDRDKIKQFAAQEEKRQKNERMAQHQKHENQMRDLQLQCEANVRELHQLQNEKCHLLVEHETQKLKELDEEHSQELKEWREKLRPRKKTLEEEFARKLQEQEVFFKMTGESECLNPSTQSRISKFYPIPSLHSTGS

ROCK1 (human) = ROCK1 (human) (UniProt Q13464)
STK25 (human) = STK25 (human) (UniProt O00506)
Sequence of STK25 (human) (O00506 whole entry, looked up): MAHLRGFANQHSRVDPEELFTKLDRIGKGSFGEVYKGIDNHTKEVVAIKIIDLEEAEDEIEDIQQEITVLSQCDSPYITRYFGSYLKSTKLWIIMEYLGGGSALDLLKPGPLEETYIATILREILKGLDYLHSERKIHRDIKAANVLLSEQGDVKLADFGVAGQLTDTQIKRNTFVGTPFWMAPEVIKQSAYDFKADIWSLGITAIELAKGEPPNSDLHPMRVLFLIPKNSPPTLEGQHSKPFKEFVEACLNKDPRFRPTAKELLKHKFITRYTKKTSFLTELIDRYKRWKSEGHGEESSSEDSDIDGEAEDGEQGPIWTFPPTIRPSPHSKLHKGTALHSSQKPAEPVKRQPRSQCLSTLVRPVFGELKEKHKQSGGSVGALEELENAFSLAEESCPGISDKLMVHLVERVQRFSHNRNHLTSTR

WNK2 (human) = WNK2 (human) (UniProt Q9Y3S1)
NUAK2 (human) = NUAK2 (human) (UniProt Q9H093)
RPS6KA1 KD1 KD2 (human) = RPS6KA1 KD1 KD2 (human) (UniProt Q15418)
[3] = target: JAK1 JH1 catalytic (human) (UniProt P23458)
DYRK1B (human) = DYRK1B (human) (UniProt Q9Y463)
KDR (human) = KDR (human) (UniProt P35968)
SIK2 (human) = SIK2 (human) (UniProt Q9H0K1)
PRKCB1 (human) = PRKCB1 (human) (UniProt P05771)
CDK1 CCNA2 (human) = CDK1 CCNA2 (human) (UniProt P06493+P20248)
Sequence of CDK1 CCNA2 (human) (P06493 whole entry, looked up): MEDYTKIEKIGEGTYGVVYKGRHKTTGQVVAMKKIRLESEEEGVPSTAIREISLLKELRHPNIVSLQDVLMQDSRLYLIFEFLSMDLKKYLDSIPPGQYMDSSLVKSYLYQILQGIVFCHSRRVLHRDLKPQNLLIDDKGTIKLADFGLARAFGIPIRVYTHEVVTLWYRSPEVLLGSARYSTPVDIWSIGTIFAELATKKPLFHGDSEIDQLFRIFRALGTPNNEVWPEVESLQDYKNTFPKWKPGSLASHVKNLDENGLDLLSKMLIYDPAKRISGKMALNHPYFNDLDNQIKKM
Sequence of CDK1 CCNA2 (human) (P20248 whole entry, looked up): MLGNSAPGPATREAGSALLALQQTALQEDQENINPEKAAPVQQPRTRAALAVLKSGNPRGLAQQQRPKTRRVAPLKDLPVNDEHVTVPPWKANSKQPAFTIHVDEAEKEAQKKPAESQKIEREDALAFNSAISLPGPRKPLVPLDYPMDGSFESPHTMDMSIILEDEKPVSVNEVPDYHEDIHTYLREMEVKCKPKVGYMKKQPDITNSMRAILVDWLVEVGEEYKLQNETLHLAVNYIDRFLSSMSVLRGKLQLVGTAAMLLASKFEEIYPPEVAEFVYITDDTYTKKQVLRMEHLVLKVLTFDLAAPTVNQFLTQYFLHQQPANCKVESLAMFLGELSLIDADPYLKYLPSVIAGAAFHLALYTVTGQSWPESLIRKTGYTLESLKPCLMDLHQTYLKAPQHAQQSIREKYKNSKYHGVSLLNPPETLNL

CDK4 CCND1 (human) = CDK4 CCND1 (human) (UniProt P24385+P11802)
TNK2 (human) = TNK2 (human) (UniProt Q07912)
FGFR2 (human) = FGFR2 (human) (UniProt P21802)
PRKD3 (human) = PRKD3 (human) (UniProt O94806)
ABL2 (human) = ABL2 (human) (UniProt P42684)
EPHA5 (human) = EPHA5 (human) (UniProt P54756)
BLK (human) = BLK (human) (UniProt P51451)

Sequence of MELK (human) (Q14680 whole entry, looked up): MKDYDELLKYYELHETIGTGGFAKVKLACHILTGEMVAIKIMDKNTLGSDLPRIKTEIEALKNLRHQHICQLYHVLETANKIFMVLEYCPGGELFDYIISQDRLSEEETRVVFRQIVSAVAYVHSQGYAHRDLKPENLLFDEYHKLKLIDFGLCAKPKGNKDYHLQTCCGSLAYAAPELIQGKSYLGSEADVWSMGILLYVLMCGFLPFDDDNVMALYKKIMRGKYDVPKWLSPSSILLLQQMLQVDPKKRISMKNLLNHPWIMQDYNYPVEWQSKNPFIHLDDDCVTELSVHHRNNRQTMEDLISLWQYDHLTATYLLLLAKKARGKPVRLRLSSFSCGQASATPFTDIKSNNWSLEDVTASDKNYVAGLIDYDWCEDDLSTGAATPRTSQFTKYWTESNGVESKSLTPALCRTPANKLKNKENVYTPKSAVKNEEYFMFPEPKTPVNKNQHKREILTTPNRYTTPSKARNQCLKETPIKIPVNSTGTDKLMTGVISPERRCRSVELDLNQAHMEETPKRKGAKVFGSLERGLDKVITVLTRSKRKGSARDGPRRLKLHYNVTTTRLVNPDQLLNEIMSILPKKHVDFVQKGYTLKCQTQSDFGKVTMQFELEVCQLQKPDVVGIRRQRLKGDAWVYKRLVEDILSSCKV
Sequence of STK3 (human) (Q13188 whole entry, looked up): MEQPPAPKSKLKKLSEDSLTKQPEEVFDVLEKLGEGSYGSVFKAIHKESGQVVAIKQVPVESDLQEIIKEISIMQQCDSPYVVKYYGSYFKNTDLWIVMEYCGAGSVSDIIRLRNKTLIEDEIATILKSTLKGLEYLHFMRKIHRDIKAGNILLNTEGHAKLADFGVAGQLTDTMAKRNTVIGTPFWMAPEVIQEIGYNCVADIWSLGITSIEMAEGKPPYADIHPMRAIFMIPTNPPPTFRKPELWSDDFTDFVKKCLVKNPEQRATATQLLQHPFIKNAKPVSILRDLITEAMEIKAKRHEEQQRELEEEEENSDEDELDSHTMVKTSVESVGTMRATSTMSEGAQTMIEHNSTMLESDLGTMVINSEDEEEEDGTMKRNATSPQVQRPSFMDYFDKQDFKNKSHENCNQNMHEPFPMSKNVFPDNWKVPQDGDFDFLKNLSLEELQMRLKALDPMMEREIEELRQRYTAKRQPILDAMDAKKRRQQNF

residual activity (MELK (human)): 4.87% | residual activity (PRKCZ (human)): 98.6% | residual activity [1]: 8.26% | residual activity (STK24 (human)): 39.1% | residual activity (STK3 (human)): 1.93% | residual activity (CAMKK1 (human)): 20.4% | residual activity (CAMK2B (human)): 57.4% | residual activity (EPHA2 (human)): 92.3% | residual activity (CAMKK2 (human)): 3.9% | residual activity (PRKCD (human)): 10.9% | residual activity (SGK2 (human)): 99% | residual activity (CDK5 CDK5R1 p35 (human)): 74.1% | residual activity (HIPK4 (human)): 90.5% | residual activity (MET (human)): 89.4% | residual activity (DYRK3 (human)): 98.5% | residual activity [2]: 10.9% | residual activity (MAP4K5 (human)): 7.01% | residual activity (GRK4 (human)): 94.4% | residual activity (PDGFRA (human)): 30% | residual activity (ACVR1B (human)): 102% | residual activity (CSF1R (human)): 6.65% | residual activity (MAP3K14 (human)): 113% | residual activity (SRMS (human)): 97.6% | residual activity (SLK (human)): 30.5% | residual activity (ROCK1 (human)): 85.3% | residual activity (STK25 (human)): 55% | residual activity (WNK2 (human)): 111% | residual activity (NUAK2 (human)): 26.2% | residual activity (RPS6KA1 KD1 KD2 (human)): 0.432% | residual activity [3]: 16.3% | residual activity (DYRK1B (human)): 35.6%
SMILES: CO[C@@H]1[C@H](N(C)C(=O)c2ccccc2)C[C@H]2O[C@]1(C)n1c3ccccc3c3c4c(c5c6ccccc6n2c5c31)C(=O)NC4

SMILES: O=C1C(Cl)=C(N2C(=O)CCC2=O)C(=O)c2ccccc21
residual activity (KDR (human)): 88.3% | residual activity (MELK (human)): 96.4% | residual activity (PRKCZ (human)): 114% | residual activity [1]: 102% | residual activity (STK24 (human)): 87% | residual activity (SIK2 (human)): 92.8% | residual activity (STK3 (human)): 98.2% | residual activity (PRKCB1 (human)): 92.1% | residual activity (CDK1 CCNA2 (human)): 99.8% | residual activity (CAMKK1 (human)): 112% | residual activity (CDK4 CCND1 (human)): 103% | residual activity (TNK2 (human)): 91.5% | residual activity (CAMK2B (human)): 106% | residual activity (EPHA2 (human)): 107% | residual activity (CAMKK2 (human)): 86.1% | residual activity (FGFR2 (human)): 102% | residual activity (PRKCD (human)): 97.8% | residual activity (SGK2 (human)): 99.5% | residual activity (CDK5 CDK5R1 p35 (human)): 93.7% | residual activity (HIPK4 (human)): 98.2% | residual activity (MET (human)): 109% | residual activity (PRKD3 (human)): 88.2% | residual activity (DYRK3 (human)): 95.4% | residual activity [2]: 102% | residual activity (MAP4K5 (human)): 90.4% | residual activity (GRK4 (human)): 97.6% | residual activity (PDGFRA (human)): 109% | residual activity (ACVR1B (human)): 106% | residual activity (CSF1R (human)): 102% | residual activity (MAP3K14 (human)): 102% | residual activity (SRMS (human)): 108% | residual activity (SLK (human)): 104% | residual activity (ROCK1 (human)): 106% | residual activity (ABL2 (human)): 106% | residual activity (STK25 (human)): 107% | residual activity (EPHA5 (human)): 113% | residual activity (WNK2 (human)): 108% | residual activity (NUAK2 (human)): 86.7% | residual activity (RPS6KA1 KD1 KD2 (human)): 96.6% | residual activity [3]: 107% | residual activity (DYRK1B (human)): 103%

SMILES: N#C/C(=C\c1ccc(O)c(O)c1)C(=O)NCc1ccccc1
residual activity (KDR (human)): 95.8% | residual activity (MELK (human)): 100% | residual activity (PRKCZ (human)): 104% | residual activity [1]: 97.1% | residual activity (STK24 (human)): 100% | residual activity (SIK2 (human)): 99.7% | residual activity (PRKCB1 (human)): 91% | residual activity (CDK1 CCNA2 (human)): 92.8% | residual activity (CAMKK1 (human)): 102% | residual activity (CDK4 CCND1 (human)): 109% | residual activity (TNK2 (human)): 98.3% | residual activity (CAMK2B (human)): 102% | residual activity (BLK (human)): 95.6% | residual activity (EPHA2 (human)): 105% | residual activity (CAMKK2 (human)): 97.4% | residual activity (FGFR2 (human)): 98.1% | residual activity (PRKCD (human)): 91.1% | residual activity (SGK2 (human)): 101% | residual activity (CDK5 CDK5R1 p35 (human)): 99.8% | residual activity (HIPK4 (human)): 106% | residual activity (MET (human)): 98.1% | residual activity (PRKD3 (human)): 90.2% | residual activity (DYRK3 (human)): 99.6% | residual activity [2]: 87.7% | residual activity (GRK4 (human)): 101% | residual activity (PDGFRA (human)): 110% | residual activity (ACVR1B (human)): 98% | residual activity (CSF1R (human)): 100% | residual activity (MAP3K14 (human)): 109% | residual activity (SRMS (human)): 104% | residual activity (SLK (human)): 99.1% | residual activity (ROCK1 (human)): 99.7% | residual activity (ABL2 (human)): 93.4% | residual activity (STK25 (human)): 101% | residual activity (EPHA5 (human)): 103% | residual activity (WNK2 (human)): 104% | residual activity (NUAK2 (human)): 131% | residual activity (RPS6KA1 KD1 KD2 (human)): 102% | residual activity [3]: 93.8% | residual activity (DYRK1B (human)): 106%

SMILES: Cn1c2ccccc2c2c3c(c4c5ccccc5n(CCC#N)c4c21)CNC3=O
residual activity (KDR (human)): 57% | residual activity (MELK (human)): 21.1% | residual activity (PRKCZ (human)): 87% | residual activity [1]: 2.62% | residual activity (STK24 (human)): 62.8% | residual activity (SIK2 (human)): 54.5% | residual activity (STK3 (human)): 3.07% | residual activity (PRKCB1 (human)): 18.7% | residual activity (CDK1 CCNA2 (human)): 55.5% | residual activity (CAMKK1 (human)): 19.3% | residual activity (CDK4 CCND1 (human)): 27.5% | residual activity (TNK2 (human)): 2.78% | residual activity (CAMK2B (human)): 51.3% | residual activity (EPHA2 (human)): 92.5% | residual activity (CAMKK2 (human)): 3.88% | residual activity (FGFR2 (human)): 79.8% | residual activity (PRKCD (human)): 41.9% | residual activity (SGK2 (human)): 94% | residual activity (CDK5 CDK5R1 p35 (human)): 8.52% | residual activity (HIPK4 (human)): 103% | residual activity (MET (human)): 100% | residual activity (PRKD3 (human)): 7.3% | residual activity (DYRK3 (human)): 83.9% | residual activity [2]: 38.2% | residual activity (MAP4K5 (human)): 4.18% | residual activity (GRK4 (human)): 75.1% | residual activity (PDGFRA (human)): 83.5% | residual activity (ACVR1B (human)): 115% | residual activity (CSF1R (human)): 84.1% | residual activity (MAP3K14 (human)): 84.1% | residual activity (SRMS (human)): 96.6% | residual activity (SLK (human)): 34.1% | residual activity (ROCK1 (human)): 61.9% | residual activity (ABL2 (human)): 42.3% | residual activity (STK25 (human)): 83.9% | residual activity (EPHA5 (human)): 88.2% | residual activity (WNK2 (human)): 103% | residual activity (NUAK2 (human)): 40.5% | residual activity (RPS6KA1 KD1 KD2 (human)): 9.7% | residual activity [3]: 20.2% | residual activity (DYRK1B (human)): 25.6%

SMILES: C[C@@H]1CCN(C(=O)CC#N)C[C@@H]1N(C)c1ncnc2[nH]ccc12
residual activity (MELK (human)): 79.4% | residual activity (PRKCZ (human)): 91.7% | residual activity [1]: 12% | residual activity (STK24 (human)): 96.1% | residual activity (SIK2 (human)): 89.2% | residual activity (STK3 (human)): 85.8% | residual activity (PRKCB1 (human)): 101% | residual activity (CDK1 CCNA2 (human)): 95.9% | residual activity (CAMKK1 (human)): 101% | residual activity (CDK4 CCND1 (human)): 94.1% | residual activity (TNK2 (human)): 87.1% | residual activity (EPHA2 (human)): 95.8% | residual activity (CAMKK2 (human)): 97.7% | residual activity (FGFR2 (human)): 91.7% | residual activity (PRKCD (human)): 75.3% | residual activity (SGK2 (human)): 104% | residual activity (CDK5 CDK5R1 p35 (human)): 99.5% | residual activity (HIPK4 (human)): 96.2% | residual activity (MET (human)): 86.7% | residual activity (PRKD3 (human)): 89.8% | residual activity (DYRK3 (human)): 106% | residual activity [2]: 97.5% | residual activity (MAP4K5 (human)): 112% | residual activity (GRK4 (human)): 93.5% | residual activity (PDGFRA (human)): 104% | residual activity (ACVR1B (human)): 99.8% | residual activity (CSF1R (human)): 101% | residual activity (MAP3K14 (human)): 107% | residual activity (SRMS (human)): 95.8% | residual activity (SLK (human)): 89.2% | residual activity (ROCK1 (human)): 90.1% | residual activity (ABL2 (human)): 90.5% | residual activity (STK25 (human)): 97.2% | residual activity (EPHA5 (human)): 99.9% | residual activity (WNK2 (human)): 101% | residual activity (NUAK2 (human)): 80.3% | residual activity (RPS6KA1 KD1 KD2 (human)): 90.9% | residual activity (DYRK1B (human)): 97%

From the kinase profiling compilation of Christmann-Franck et al. (2016)
